The record followed here is ChEMBL document CHEMBL1201862, “PubChem BioAssay data set” (2004).

Structures are written as SMILES.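 Interpolation was linear, between the two tested concentrations surrounding the appropriate level; five concentrations were tested over 48 hours in 96-well plates. Here, GI50 denotes the concentration required for 50% inhibition of growth.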 The source made the active and inactive calls. Rule as the data show it: active = GI50 up to about 1.1 µM and inactive = higher.

Test systems include CCRF-CEM; EKVX; LOX IMVI; MDA-MB-435; MOLT-4; NCI/ADR-RES; OVCAR-3; OVCAR-5; OVCAR-8; PC-3; RPMI-8226; SN12C; SNB-19; U-251; A498; COLO 205; NCI-H522; SF-268; HCC 2998; MCF7.
Common to all, as to assay: NCI anticancer screen, dose series, 48 h

On to `CC1CCC(C(=O)O)(C(Br)C(=O)O)CC1` (centres undefined), for which the GI50 in the assay on CCRF-CEM, in the assay on EKVX, with LOX IMVI, in the assay on MDA-MB-435, in the assay on MOLT-4 and with NCI/ADR-RES was > 100 µM (inactive) each time. The GI50 in the assay on OVCAR-3, with OVCAR-5, in the assay with OVCAR-8, with PC-3, in the assay on RPMI-8226 and with SN12C was > 100 µM (inactive) throughout. The GI50 in the assay on SNB-19 and with U-251 was > 100 µM (inactive) throughout.
For `Cc1ccc(-n2cc(-c3ccc(Cl)cc3)c3c(NNC(=S)NCc4ccccc4)ncnc32)cc1`, the GI50 with A498 is 23.6 µM (inactive); in the assay on CCRF-CEM it was 2.77 µM (inactive); in the assay on COLO 205, 10.7 µM (inactive); in the assay on EKVX, 13.1 µM (inactive); in the assay on LOX IMVI, 5.06 µM (inactive); in the assay with MDA-MB-435, 8.02 µM (inactive). Moreover, the GI50 was 6.38 µM (inactive) with MOLT-4; 4.53 µM (inactive) in the assay on NCI-H522; 6.37 µM (inactive) with NCI/ADR-RES; 4.56 µM (inactive) in the assay on OVCAR-3; 11.3 µM (inactive) in the assay on OVCAR-5; 6.22 µM (inactive) in the assay with OVCAR-8. Moreover, the GI50 in the assay with PC-3 was 2.59 µM (inactive); with RPMI-8226, 9.29 µM (inactive); in the assay with SF-268 it was 8.53 µM (inactive); in the assay with SN12C it was 7.21 µM (inactive); in the assay on SNB-19 it was 23.3 µM (inactive); in the assay on U-251 it was 5.36 µM (inactive).
`S=C=Nc1ccc(CSc2nc3ccccc3[nH]2)cc1`: the GI50 in the assay on A498 is 23 µM (inactive); in the assay with CCRF-CEM, 29.5 µM (inactive); in the assay on COLO 205, 15.5 µM (inactive); in the assay on EKVX, 20 µM (inactive); with HCC 2998 it was 18.1 µM (inactive); in the assay with LOX IMVI, 17.2 µM (inactive). The GI50 was 17.5 µM (inactive) in the assay with MDA-MB-435; 23.7 µM (inactive) in the assay with MOLT-4; 4.25 µM (inactive) with NCI-H522; 18 µM (inactive) in the assay on NCI/ADR-RES; 18.2 µM (inactive) in the assay on OVCAR-5; 17.8 µM (inactive) in the assay on OVCAR-8. Moreover, the GI50 in the assay on PC-3 is 17.9 µM (inactive); with RPMI-8226 it was 23.2 µM (inactive); with SF-268, 17 µM (inactive); in the assay on SN12C, 17.5 µM (inactive); in the assay on SNB-19, 25.9 µM (inactive); in the assay on U-251, 17.1 µM (inactive).
With `O=C(CSCC(=O)N/N=C\c1ccc(O)c(O)c1O)N/N=C\c1ccc(O)c(O)c1O`, the GI50 in the assay with A498 is 29.7 µM (inactive); in the assay on CCRF-CEM, 1.73 µM (inactive); in the assay with COLO 205, 23.3 µM (inactive); in the assay with EKVX, 21.3 µM (inactive); in the assay with HCC 2998, 14.7 µM (inactive); in the assay on LOX IMVI, 2.18 µM (inactive). Also, the GI50 was 3.8 µM (inactive) in the assay on MCF7; 1.97 µM (inactive) with MDA-MB-435; 3.15 µM (inactive) with MOLT-4; 19.1 µM (inactive) in the assay with NCI-H522; 1.54 µM (inactive) in the assay on NCI/ADR-RES; 3.38 µM (inactive) with OVCAR-3. For the same compound, the GI50 was 2.31 µM (inactive) with OVCAR-8; 2.3 µM (inactive) in the assay with RPMI-8226; 29.5 µM (inactive) in the assay on SF-268; 21.2 µM (inactive) with SN12C; 29.4 µM (inactive) with SNB-19; 4.84 µM (inactive) in the assay on U-251.
For `C=C(CC(NC(=O)c1ccc(C(CC)Cc2cnc3nc(N)nc(N)c3n2)cc1)C(=O)O)C(=O)O` (centres undefined), the GI50 with A498 is 0.632 µM (active); in the assay with CCRF-CEM it was 0.01 µM (active); in the assay with COLO 205, 0.0796 µM (active); with EKVX it was 52.7 µM (inactive); in the assay on HCC 2998, 0.239 µM (active); with LOX IMVI, 0.00436 µM (active). Moreover, the GI50 is 0.0369 µM (active) in the assay on MDA-MB-435; 0.0136 µM (active) in the assay on MOLT-4; 0.19 µM (active) in the assay with OVCAR-3; 0.653 µM (active) with OVCAR-5; 0.0217 µM (active) in the assay on OVCAR-8; 0.0527 µM (active) with PC-3. For the same compound, the GI50 in the assay on RPMI-8226 is 0.029 µM (active); in the assay on SF-268, 0.0731 µM (active); with SN12C, 0.0244 µM (active); with U-251 it was 0.152 µM (active).
